“Also recorded” adds a separate entry of the source. Read-outs that look alike come from different tables or passages of the source.
Experiments:
TDP-43 = assay: Soluble and insoluble fractions of TDP-43 in TDP-43-transfected Neuro2a cells, Western blot (Example 2); assay type: cell-based, Mouse; settings: 10 µmol/L added 6 hours after transfection, cultured for 12 hours; for soluble fractions versus insoluble fractions of TDP-43 in the cells: Figure 5; for proportion of insoluble fractions based on a total number of soluble fractions and insoluble fractions of TDP-43: Figure 6
Experimental: (§1) Mouse neuroblastoma (Neuro2a) cells were seeded on a dish. The Neuro2a cells were cultured in a culture medium containing DMEM+10% FBS at 37°C in the presence of 5% CO2. On the first day after seeding, differentiation into neurons was initiated. Differentiation into neurons was performed in a culture medium containing DMEM+2% FBS+20 µmol/L retinoic acid. On the fourth day after seeding, cells were transfected with synthesized TDP-43 mRNA by a lipofection method. Cells were sampled at 6 hours, 9 hours, 12 hours, 15 hours, 18 hours, and 21 hours after transfection. […] For sampling, cells were lysed in an RIPA buffer and centrifuged at 22,000 Xg for 30 minutes at 4°C, the supernatant was used as the soluble fraction, the precipitate was used as the insoluble fraction, and equal volumes of a 2×SDS sample buffer were added to the respective fractions and heated at 95°C for 5 minutes to prepare electrophoresis samples. The electrophoresis samples were subjected to electrophoresis using a polyacrylamide gel, TDP-43 was then transferred to a PVDF membrane. TDP-43 was detected through chemiluminescence using anti-TDP-43 antibodies as primary antibodies and HRP-conjugated anti-rabbit antibodies as secondary antibodies. […] The insoluble fractions of TDP-43 indicate the aggregation of TDP-43.
Neuro2a cells were seeded on a dish. On the first day after seeding, differentiation into neurons was initiated. On the fourth day after seeding, cells were transfected with the TDP-43 gene.

[1] = test system: TDP-43 in motor neurons derived from iPS cells of ALS patients; assay: Soluble and insoluble fractions of TDP-43 in motor neurons derived from iPS cells of ALS patients, Western blot (Example 3); assay type: cell-based, human; settings: 10 µmol/L, cultured for 20 days; for bands for soluble and insoluble fractions of TDP-43: Figure 7; for average proportion of insoluble fractions of TDP-43: three experiments, DMSO control about 46.1%, Figure 8
[2] = test system: TDP-43 in motor neurons derived from iPS cells of healthy subjects; assay: Soluble and insoluble fractions of TDP-43 in motor neurons derived from iPS cells of healthy subjects, Western blot (Example 3); assay type: cell-based, human; settings: 10 µmol/L, cultured for 20 days, Figure 7
[3] = Reported pharmacokinetics of D-cycloserine after oral administration to humans; assay type: in vivo; settings: estimated; 15 mg orally administered twice daily
[4] = test system: Neuro2a cells transfected with the TDP-43 gene; assay: Inhibition of cell death in neuronally differentiated Neuro2a cells transfected with the TDP-43 gene (Example 1); assay type: cell-based, Mouse; settings: evaluated 7 days after transfection; for EC50: Mus musculus, N2a, compound added 5 hours after transfection, 10-10,000 nmol/L, relative viability, read-out: EC50 (inhibition of cell death in nerve cells forcibly expressing TDP-43); for inhibition of cell death: cells transfected with the TDP-43 gene, Figures 3C and 4
Experimental: as §1
Neuro2a cells were seeded on a dish. On the first day after seeding, differentiation into neurons was initiated. On the fourth day after seeding, cells were transfected with the TDP-43 gene. […] In addition, as a control, 10 nmol/L, 50 nmol/L, 100 nmol/L, 500 nmol/L, 1,000 nmol/L, 5,000 nmol/L, or 10,000 nmol/L of ropinirole was added to a culture medium.
The proportion of dead cells was evaluated 7 days after the cells were transfected with the TDP-43 gene.

[5] = cited from earlier work
[6] = cited from earlier work; remark: listed apart in the source

## N[C@@H]1CONC1=O [D-cycloserine, (4R)-4-Amino-1,2-oxazolidin-3-one]
TDP-43
  soluble fractions versus insoluble fractions of TDP-43 in the cells: the number of soluble fractions of TDP-43 was larger than the number of insoluble fractions of TDP-43
  proportion of insoluble fractions based on a total number of soluble fractions and insoluble fractions of TDP-43: less than half
[1]
  bands for soluble and insoluble fractions of TDP-43: bands for soluble fractions of TDP-43 were clearly observed, and bands for insoluble fractions were unclear
  average proportion of insoluble fractions of TDP-43: about 17.4%
[2]
  bands for soluble and insoluble fractions of TDP-43: bands for soluble fractions of TDP-43 were clearly observed, and bands for insoluble fractions were unclear
[3]
  trough value: > 128 nmol/L
[4]
  EC50: 0.128 µM
  inhibition of cell death: cell death was inhibited; also recorded: exhibited an effect of inhibiting cell death in a concentration-dependent manner
[5]; 150 mg administered to humans
  side effects: causes headaches
[5]; 250 mg administered to humans in order to treat tuberculosis
  side effects: serious side effects such as epileptiform seizure and mental confusion
[6]; 15 mg orally administered to humans, read-out: maximum blood concentration (Cmax)
  Cmax: ~5.6 µM
[6]; reported
  half-life: about 10 hours

## N[C@H]1CONC1=O [L-cycloserine, (4S)-4-amino-1,2-oxazolidin-3-one]
TDP-43
  soluble fractions versus insoluble fractions of TDP-43 in the cells: the number of soluble fractions of TDP-43 was larger than the number of insoluble fractions of TDP-43
  proportion of insoluble fractions based on a total number of soluble fractions and insoluble fractions of TDP-43: less than half
[4]
  EC50: 0.237 µM
  inhibition of cell death: exhibited an effect of inhibiting cell death in a concentration-dependent manner

## CC(=O)NCCCS(=O)(=O)O [acamprosate, 3-(acetylamino)propylsulfonic acid]
[5]; administered to humans, dose not stated
  side effects: anaphylaxis associated with symptoms such as generalized skin rash, rash, urticaria, stomatitis, laryngospasm, and shortness of breath; also recorded: angioedema associated with symptoms such as tongue swelling and lymphadenopathy

## CCCN(CCC)CCc1cccc2c1CC(=O)N2 [ropinirole]
[1]
  bands for soluble and insoluble fractions of TDP-43: bands for soluble fractions of TDP-43 were clearly observed, and bands for insoluble fractions were unclear
  average proportion of insoluble fractions of TDP-43: about 19.3%
[2]
  bands for soluble and insoluble fractions of TDP-43: bands for soluble fractions of TDP-43 were clearly observed, and bands for insoluble fractions were unclear
[4]
  EC50: 0.198 µM

Source: patent publication EP4702978A1, “AGENT FOR TREATING OR PREVENTING AMYOTROPHIC LATERAL SCLEROSIS” (Socium Inc., priority 2023, dated 2024)
